Assay in all cases: KinomeScan kinase panel, single concentration 10 µM
Holding throughout (type): binding

Assay [1] has as its target T1, KinomeScan kinase panel (Homo sapiens, UniProt P00533, G719C).
T1 construct: purchased DiscoveRx (KinomeScan)
The conditions noted are these: EGFR(G719C), 10 µM.

The target of assay [2] is T2, KinomeScan kinase panel (Homo sapiens, UniProt P04049).
T2 construct: purchased DiscoveRx (KinomeScan)
Particulars: read-out: score (%).

The target in assay [3] is T3, KinomeScan kinase panel (Homo sapiens, UniProt P04626).
T3 construct: purchased DiscoveRx (KinomeScan)
The conditions noted are these: ERBB2, 10 µM; read-out: score (%).

Assay [4] deals with T4, KinomeScan kinase panel (Homo sapiens, UniProt P11309).
T4 construct: purchased DiscoveRx (KinomeScan)
Particulars: PIM1, 10 µM; read-out: score (%).

Assay [5] deals with T5, KinomeScan kinase panel (Homo sapiens, UniProt P27448).
T5 construct: purchased DiscoveRx (KinomeScan)
The conditions noted are these: MARK3, 10 µM; read-out: score (%).

Assay [6] addresses T6, KinomeScan kinase panel (Homo sapiens, UniProt P45983).
T6 construct: purchased DiscoveRx (KinomeScan)
Particulars: JNK1, 10 µM.

The target of assay [7] is T7, KinomeScan kinase panel (Homo sapiens, UniProt P53350).
T7 construct: purchased DiscoveRx (KinomeScan)
Particulars: PLK1, 10 µM; read-out: score (%).

Assay [8] has as its target T8, KinomeScan kinase panel (Homo sapiens, UniProt Q02156).
T8 construct: purchased DiscoveRx (KinomeScan)
T8 sequence (Q02156 1-737): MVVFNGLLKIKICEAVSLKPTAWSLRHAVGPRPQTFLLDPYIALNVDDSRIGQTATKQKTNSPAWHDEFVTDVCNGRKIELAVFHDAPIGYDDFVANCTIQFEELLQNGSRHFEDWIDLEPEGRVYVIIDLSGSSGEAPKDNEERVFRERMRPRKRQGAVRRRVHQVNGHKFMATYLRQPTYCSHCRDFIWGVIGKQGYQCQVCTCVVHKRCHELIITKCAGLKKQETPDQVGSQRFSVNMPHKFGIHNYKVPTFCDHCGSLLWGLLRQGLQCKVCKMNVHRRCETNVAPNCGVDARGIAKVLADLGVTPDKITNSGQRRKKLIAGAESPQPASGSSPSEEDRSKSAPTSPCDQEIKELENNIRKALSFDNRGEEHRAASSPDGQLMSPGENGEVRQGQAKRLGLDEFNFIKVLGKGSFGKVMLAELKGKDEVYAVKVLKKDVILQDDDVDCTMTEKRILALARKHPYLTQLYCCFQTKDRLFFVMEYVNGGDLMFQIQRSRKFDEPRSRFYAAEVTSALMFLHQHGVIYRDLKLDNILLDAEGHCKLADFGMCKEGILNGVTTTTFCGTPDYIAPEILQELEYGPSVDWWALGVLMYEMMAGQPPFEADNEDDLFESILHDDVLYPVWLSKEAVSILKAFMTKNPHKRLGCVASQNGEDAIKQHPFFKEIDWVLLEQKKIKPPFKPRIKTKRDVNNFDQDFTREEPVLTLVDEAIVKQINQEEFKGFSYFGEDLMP
Particulars: 10 µM, read-out: score (%).

Assay [9] has as its target T9, KinomeScan kinase panel (Homo sapiens, UniProt Q13470).
T9 construct: purchased DiscoveRx (KinomeScan)
T9 sequence (Q13470 1-666): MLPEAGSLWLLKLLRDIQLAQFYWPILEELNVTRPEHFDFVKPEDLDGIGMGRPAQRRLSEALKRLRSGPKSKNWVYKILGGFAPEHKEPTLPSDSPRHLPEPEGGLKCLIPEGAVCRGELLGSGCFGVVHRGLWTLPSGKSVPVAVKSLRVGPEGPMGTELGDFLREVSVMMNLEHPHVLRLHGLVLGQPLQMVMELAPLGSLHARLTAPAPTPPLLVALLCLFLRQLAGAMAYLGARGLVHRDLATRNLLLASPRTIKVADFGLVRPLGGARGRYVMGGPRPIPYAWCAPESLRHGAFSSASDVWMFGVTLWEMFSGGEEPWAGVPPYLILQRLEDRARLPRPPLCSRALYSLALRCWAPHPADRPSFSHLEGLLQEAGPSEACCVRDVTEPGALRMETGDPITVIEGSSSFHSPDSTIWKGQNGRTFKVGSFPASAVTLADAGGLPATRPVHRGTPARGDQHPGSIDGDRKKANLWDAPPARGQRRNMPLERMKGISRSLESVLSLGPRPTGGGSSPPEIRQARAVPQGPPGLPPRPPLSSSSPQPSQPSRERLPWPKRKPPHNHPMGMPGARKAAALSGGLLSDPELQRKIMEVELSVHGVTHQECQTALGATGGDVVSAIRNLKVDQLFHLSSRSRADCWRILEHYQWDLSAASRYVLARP
Particulars: read-out: score (%).

Assay [10] addresses T10, KinomeScan kinase panel (Homo sapiens, UniProt Q15569).
T10 construct: purchased DiscoveRx (KinomeScan)
Particulars: read-out: score (%).

In assay [11] the target is T11, KinomeScan kinase panel (Homo sapiens, UniProt Q9UKI8).
T11 construct: purchased DiscoveRx (KinomeScan)
T11 sequence (Q9UKI8 1-766): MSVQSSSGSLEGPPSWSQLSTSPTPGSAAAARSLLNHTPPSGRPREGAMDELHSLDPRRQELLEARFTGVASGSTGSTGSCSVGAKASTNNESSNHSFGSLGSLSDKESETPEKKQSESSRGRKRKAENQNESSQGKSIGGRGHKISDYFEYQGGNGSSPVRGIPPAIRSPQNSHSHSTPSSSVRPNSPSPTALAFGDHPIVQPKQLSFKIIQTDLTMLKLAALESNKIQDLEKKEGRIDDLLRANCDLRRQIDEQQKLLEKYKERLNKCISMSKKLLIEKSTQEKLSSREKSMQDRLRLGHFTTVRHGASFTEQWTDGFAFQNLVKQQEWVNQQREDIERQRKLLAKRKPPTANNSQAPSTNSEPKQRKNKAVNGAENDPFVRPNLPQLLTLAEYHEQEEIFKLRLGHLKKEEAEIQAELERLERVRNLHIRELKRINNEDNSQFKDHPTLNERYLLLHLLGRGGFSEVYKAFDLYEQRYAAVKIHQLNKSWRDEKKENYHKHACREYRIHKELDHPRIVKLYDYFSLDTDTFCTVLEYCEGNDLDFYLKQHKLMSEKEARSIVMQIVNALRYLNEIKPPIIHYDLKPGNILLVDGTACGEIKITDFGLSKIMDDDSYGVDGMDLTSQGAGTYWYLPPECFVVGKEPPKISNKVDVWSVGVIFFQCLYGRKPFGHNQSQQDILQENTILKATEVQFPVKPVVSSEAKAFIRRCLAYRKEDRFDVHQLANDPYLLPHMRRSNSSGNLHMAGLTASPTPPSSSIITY
The conditions noted are these: read-out: score (%).

The source of these data is article PMC4457528, “Identification of Novel Small Molecule Inhibitors of Oncogenic RET Kinase” (PLoS ONE, 2015).

Read-outs that look alike come from different tables or passages of the source. A value given as a limit tells only on which side of the number the result lay.

T2 sequence (P04049 whole entry): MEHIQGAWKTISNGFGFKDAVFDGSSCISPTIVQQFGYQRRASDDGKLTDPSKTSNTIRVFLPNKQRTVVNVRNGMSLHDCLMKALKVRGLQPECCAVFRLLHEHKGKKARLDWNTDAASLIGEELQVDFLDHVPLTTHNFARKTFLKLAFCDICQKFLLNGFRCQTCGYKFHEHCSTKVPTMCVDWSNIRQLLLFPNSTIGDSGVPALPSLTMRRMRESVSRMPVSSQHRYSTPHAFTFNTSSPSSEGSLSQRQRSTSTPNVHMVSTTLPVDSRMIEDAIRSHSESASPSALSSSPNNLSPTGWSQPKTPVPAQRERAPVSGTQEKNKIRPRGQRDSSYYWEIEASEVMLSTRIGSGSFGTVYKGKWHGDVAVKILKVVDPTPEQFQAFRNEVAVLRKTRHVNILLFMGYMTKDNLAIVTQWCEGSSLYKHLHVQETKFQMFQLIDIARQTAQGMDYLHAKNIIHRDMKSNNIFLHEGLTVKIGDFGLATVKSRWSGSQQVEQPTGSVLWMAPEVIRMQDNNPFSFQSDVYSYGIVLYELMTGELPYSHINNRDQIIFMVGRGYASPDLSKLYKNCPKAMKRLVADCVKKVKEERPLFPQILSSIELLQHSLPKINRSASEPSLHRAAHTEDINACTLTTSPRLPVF
T4 sequence (P11309 whole entry): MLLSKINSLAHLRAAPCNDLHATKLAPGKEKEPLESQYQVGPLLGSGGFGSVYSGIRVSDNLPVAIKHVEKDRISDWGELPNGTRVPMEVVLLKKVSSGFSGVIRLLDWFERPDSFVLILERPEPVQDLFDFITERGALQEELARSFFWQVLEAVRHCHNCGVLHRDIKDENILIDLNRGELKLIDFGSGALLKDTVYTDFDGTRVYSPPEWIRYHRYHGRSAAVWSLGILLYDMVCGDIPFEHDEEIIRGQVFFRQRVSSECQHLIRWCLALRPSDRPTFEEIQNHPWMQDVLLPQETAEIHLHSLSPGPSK
T10 sequence (Q15569 whole entry): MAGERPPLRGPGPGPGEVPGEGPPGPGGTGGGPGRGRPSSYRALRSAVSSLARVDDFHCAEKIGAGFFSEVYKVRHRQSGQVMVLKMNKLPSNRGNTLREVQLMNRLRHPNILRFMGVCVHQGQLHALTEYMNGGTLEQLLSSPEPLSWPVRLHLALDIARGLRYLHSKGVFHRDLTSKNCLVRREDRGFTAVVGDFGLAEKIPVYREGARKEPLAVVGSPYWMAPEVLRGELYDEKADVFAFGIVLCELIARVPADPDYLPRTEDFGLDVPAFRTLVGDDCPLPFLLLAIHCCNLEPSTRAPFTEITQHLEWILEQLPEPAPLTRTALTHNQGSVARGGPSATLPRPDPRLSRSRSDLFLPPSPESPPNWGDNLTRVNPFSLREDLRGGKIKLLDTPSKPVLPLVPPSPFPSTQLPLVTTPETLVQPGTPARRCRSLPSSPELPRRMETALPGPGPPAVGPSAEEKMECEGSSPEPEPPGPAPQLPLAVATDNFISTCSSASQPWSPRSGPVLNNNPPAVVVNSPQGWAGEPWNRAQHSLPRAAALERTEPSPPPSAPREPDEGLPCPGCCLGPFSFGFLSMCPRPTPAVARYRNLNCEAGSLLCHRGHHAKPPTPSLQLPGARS
T6 sequence (P45983 whole entry): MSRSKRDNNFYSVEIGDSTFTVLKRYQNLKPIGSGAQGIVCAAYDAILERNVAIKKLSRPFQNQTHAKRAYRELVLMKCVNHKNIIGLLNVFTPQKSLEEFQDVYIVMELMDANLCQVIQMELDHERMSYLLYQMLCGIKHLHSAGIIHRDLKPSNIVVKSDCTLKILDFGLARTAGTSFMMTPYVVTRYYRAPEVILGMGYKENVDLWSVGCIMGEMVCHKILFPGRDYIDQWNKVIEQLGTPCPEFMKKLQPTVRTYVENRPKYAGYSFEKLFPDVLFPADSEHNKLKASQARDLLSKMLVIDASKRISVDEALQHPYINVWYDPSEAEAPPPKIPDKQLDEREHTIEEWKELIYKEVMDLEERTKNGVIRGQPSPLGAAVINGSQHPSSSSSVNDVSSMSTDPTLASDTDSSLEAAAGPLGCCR
T7 sequence (P53350 whole entry): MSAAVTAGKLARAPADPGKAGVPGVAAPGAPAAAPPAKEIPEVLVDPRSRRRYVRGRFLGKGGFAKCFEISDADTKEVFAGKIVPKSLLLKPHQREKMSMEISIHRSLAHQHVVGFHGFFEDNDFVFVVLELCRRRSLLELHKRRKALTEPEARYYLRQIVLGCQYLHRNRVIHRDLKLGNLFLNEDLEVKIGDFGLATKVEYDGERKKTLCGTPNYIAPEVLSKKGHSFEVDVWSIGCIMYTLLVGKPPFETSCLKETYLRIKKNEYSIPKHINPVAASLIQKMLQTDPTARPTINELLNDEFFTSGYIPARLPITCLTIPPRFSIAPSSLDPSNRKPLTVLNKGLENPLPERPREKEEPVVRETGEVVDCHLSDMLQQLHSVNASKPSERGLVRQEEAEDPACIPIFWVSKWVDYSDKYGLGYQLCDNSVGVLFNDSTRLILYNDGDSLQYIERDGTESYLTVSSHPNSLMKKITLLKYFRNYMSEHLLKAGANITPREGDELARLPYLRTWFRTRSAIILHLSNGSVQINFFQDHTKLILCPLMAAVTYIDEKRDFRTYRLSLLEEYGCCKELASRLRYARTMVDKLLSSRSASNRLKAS
T3 sequence (P04626 23-1255): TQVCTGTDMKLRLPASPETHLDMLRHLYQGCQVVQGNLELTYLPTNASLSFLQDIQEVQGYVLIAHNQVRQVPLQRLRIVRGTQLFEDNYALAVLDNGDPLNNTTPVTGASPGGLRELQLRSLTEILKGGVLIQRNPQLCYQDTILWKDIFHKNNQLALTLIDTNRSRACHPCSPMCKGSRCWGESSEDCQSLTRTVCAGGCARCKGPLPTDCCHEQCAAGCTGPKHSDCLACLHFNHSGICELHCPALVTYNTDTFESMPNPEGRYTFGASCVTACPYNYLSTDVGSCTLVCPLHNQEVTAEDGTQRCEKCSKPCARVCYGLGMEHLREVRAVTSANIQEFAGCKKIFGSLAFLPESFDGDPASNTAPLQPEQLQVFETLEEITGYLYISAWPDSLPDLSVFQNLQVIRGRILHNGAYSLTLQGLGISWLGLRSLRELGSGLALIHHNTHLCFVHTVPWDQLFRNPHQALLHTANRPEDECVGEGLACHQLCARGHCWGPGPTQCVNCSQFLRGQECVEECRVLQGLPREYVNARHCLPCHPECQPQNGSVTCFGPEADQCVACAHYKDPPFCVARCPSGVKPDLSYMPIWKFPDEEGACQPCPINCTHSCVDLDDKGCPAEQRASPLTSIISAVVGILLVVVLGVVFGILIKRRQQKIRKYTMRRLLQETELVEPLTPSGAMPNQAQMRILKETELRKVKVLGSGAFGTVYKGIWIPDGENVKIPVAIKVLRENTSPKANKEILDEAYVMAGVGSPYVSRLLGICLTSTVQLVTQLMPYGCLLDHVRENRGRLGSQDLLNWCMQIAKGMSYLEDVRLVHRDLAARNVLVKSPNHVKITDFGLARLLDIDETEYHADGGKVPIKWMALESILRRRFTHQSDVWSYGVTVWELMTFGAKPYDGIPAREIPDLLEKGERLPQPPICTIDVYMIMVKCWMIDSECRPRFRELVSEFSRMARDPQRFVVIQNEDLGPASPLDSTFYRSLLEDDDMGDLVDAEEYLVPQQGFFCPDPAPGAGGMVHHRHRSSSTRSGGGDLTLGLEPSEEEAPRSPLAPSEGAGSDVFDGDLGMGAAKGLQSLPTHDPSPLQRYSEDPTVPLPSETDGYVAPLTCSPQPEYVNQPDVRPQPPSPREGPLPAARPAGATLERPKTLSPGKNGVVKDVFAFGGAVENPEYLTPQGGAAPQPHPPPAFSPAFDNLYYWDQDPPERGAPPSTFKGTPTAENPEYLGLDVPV
T5 sequence (P27448 whole entry): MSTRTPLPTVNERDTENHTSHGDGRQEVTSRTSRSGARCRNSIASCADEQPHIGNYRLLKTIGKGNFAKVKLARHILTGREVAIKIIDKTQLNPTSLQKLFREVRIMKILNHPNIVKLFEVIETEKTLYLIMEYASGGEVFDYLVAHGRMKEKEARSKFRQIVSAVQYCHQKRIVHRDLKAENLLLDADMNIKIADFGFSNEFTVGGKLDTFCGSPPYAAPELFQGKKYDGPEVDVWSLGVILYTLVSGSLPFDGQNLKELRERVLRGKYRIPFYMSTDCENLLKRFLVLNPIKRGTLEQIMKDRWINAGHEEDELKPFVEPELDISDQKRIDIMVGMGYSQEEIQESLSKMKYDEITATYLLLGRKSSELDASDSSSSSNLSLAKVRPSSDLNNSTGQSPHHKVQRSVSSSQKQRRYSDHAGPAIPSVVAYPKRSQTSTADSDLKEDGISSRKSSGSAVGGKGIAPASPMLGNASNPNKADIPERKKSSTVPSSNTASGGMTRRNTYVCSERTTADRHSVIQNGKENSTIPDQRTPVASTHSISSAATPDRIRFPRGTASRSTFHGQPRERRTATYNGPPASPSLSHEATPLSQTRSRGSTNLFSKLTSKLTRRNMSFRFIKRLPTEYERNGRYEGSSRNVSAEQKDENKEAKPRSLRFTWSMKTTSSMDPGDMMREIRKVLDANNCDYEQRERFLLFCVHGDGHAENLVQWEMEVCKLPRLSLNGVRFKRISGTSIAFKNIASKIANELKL

Take `CCN1CCN(Cc2ccc(NC(=O)c3ccc(C)c(NC(=O)c4cncc(-c5cccs5)c4)c3)cc2C(F)(F)F)CC1` [ALW-II-41-27]: the “score (%)” value at KinomeScan kinase panel [1] was 0.15%; on KinomeScan kinase panel [6], “nb (Hits values higher than 30% were considered negative (no binding: nb))”. In addition, the remaining binding at 10 µM at KinomeScan kinase panel [2] (RAF1, 10 µM) was 1.4%; at KinomeScan kinase panel [3], 11%; on KinomeScan kinase panel [4] it was greater than 30%; on KinomeScan kinase panel [5], greater than 30%; at KinomeScan kinase panel [7], greater than 30%; on KinomeScan kinase panel [8] (PRKCE) it was 5%. For the same molecule, the remaining binding at 10 µM at KinomeScan kinase panel [9] (kinase TNK1, 10 µM) is 7.7%; at KinomeScan kinase panel [10] (kinase TESK1, 10 µM) it was greater than 30%; at KinomeScan kinase panel [11] (kinase TLK1, 10 µM), greater than 30%.
In the case of `CCN1CCN(Cc2ccc(NC(=O)c3ccc(C)c(/C=C/c4cnc5[nH]ccc5c4Cl)c3)cc2C(F)(F)F)CC1` [HG-6-63-01, (E)-3-(2-(4-chloro-1H-pyrrolo[2,3-b]pyridin-5-yl)vinyl)-N-(4-((4-ethylpiperazin-1-yl)methyl)-3-(trifluoromethyl)phenyl)-4-methylbenzamide], the figures for the “score (%)” value on KinomeScan kinase panel [1] and at KinomeScan kinase panel [6] were 0.1% and 6.6%, respectively. The remaining binding at 10 µM at KinomeScan kinase panel [2] (RAF1, 10 µM) was 2.4%; at KinomeScan kinase panel [3], 21%; at KinomeScan kinase panel [4], greater than 30%; at KinomeScan kinase panel [5] it was 29%; at KinomeScan kinase panel [7], greater than 30%; at KinomeScan kinase panel [8] (PRKCE) it was greater than 30%. The remaining binding at 10 µM at KinomeScan kinase panel [9] (TNK1, 10 µM) is 0.8%; at KinomeScan kinase panel [10] (TESK1, 10 µM), 4.2%; at KinomeScan kinase panel [11] (TLK1, 10 µM), greater than 30%.
With `CCN1CCN(Cc2ccc(NC(=O)c3ccc(C)c(C#Cc4cccnc4)c3)cc2C(F)(F)F)CC1` [XMD15-44], the “score (%)” value on KinomeScan kinase panel [1] amounted to 0.75%; at KinomeScan kinase panel [6] it was 0.55%. The remaining binding at 10 µM is 0.5% on KinomeScan kinase panel [2] (kinase RAF1, 10 µM); 0.5% at KinomeScan kinase panel [3]; 84% on KinomeScan kinase panel [4]; greater than 30% at KinomeScan kinase panel [5]; 58% on KinomeScan kinase panel [7]; 54% at KinomeScan kinase panel [8] (kinase PRKCE). In addition, the remaining binding at 10 µM is 0% on KinomeScan kinase panel [9] (kinase TNK1, 10 µM); 60% on KinomeScan kinase panel [10] (kinase TESK1, 10 µM); 93% at KinomeScan kinase panel [11] (kinase TLK1, 10 µM).
